Experimental data published in US20050043371A1, “Aminoalcohol derivatives and their use as beta 3 adrenergic agonists” (Fujisawa Pharmaceutical Co. Ltd., priority 1999, published 2005).

Key:
[1] = tested on: anesthetized dog; assay: Effect on the increase in intravesical pressure induced by carbachol in anesthetized dog; format: in vivo; settings: 0.01 mg/kg injected intravenously 5 minutes before carbachol (1.8 μg/kg); female Beagle dogs under halothane anesthesia; N = 3; P < 0.01 vs Control (4.5 ± 0.3)
Description: Effect on the increase in intravesical pressure induced by carbachol in anesthetized dog
Female Beagle dogs weighing 8.0-15.0 kg were fasted for 24 hours and maintained under halothane anesthesia. A 12F Foley catheter was lubricated with water soluble jelly, inserted into the urethral orifice and advanced approximately 10 cm until the balloon tip was placed well inside the bladder. The balloon was then inflated with 5 ml of room air and catheter slowly withdrawn just part the first resistance that is felt at the bladder neck. Urine was completely drained out through the catheter, and 30 ml of biological saline was infused. The catheter was connected to pressure transducer, and intravesical pressure was continuously recorded. The test compound was injected intravenously at 5 minutes before the administration of carbachol (1.8 μg/kg).

| melting point | Compound | Increase in intravescial pressure (mmHg) [1] |
| --- | --- | --- |
| 121 to 123 °C | COc1ccc(C(C[C@@H](C)NC[C@H](O)COc2ccccc2)c2ccc(OC)cc2)cc1.O=C(O)C(=O)O | – |
| 79 to 94 °C | COc1ccc(C(C[C@H](C)NC[C@H](O)COc2ccccc2)c2ccc(OC)cc2)cc1.O=C(O)C(=O)O | – |
| – | CC(CC(c1ccc(O)cc1)c1ccc(O)cc1)NC[C@H](O)COc1ccccc1.Cl (mixture of isomers) [Test Compound (1), (2S)-1-[[(2RS)-4,4-bis(4-hydroxyphenyl)-2-butyl]amino]-3-phenoxy-2-propanol hydrochloride] [listing 1 of 2 here] | 2.5 ± 0.3 mmHg |
| 73 °C (dec.) | CC(CC(c1ccc(O)cc1)c1ccc(O)cc1)NC[C@H](O)COc1ccccc1.Cl (mixture of isomers) [Test Compound (1), (2S)-1-[[(2RS)-4,4-bis(4-hydroxyphenyl)-2-butyl]amino]-3-phenoxy-2-propanol hydrochloride] [listing 2 of 2 here] | – |
